According to US20240277698A1, “METHODS OF USING ALDOSTERONE SYNTHASE INHIBITORS” (CINCOR PHARMA, INC., priority 2021, published 2024):
Entries after “also recorded” stand apart in the source; their conditions may differ.

Key:
CYP11B1 = biological target: T1, CYP11B1 (Homo sapiens, UniProt P15538); assay: MAD study: plasma cortisol (free and total) and 11-deoxycortisol, with and without Cortrosyn challenge; format: in vivo; conditions: for cortisol (total or free) or 11-deoxycortisol: doses ≤5 mg, including Cortrosyn challenge
T1 construct: endogenous in cells; host or cells: adrenal cortex of healthy human subjects (in vivo, oral dosing)
T1 sequence (P15538 25-503): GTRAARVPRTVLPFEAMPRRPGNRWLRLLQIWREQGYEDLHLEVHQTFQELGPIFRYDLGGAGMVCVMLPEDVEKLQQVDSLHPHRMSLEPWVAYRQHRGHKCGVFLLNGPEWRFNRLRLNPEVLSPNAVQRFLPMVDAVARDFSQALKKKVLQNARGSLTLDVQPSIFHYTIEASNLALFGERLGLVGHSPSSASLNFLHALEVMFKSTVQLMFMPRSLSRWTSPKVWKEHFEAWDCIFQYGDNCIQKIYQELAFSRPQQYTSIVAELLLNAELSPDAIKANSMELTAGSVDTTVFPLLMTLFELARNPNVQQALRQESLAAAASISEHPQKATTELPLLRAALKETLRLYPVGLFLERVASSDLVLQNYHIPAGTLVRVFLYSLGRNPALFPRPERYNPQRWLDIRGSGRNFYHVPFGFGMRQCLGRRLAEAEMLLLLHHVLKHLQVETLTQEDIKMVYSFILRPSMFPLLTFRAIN
From the text: For each subject, the study consisted of: • A screening period of up to 28 days; • A 5-day inpatient run-in period during which subjects adhered to a controlled, standardized diet and underwent baseline PD assessments; • A 15-day inpatient treatment period, during which subjects received (R)-compound 1 or placebo once daily for 10 days while adhering to a controlled, standardized diet, followed by PK and PD sampling over an additional 5 days; and • A follow-up visit 3 days (1 day) after discharge from the clinical unit. • A cortisol stimulation test (Cohorts 1 and 2 only) and standing aldosterone assessment (all cohorts) were performed on Days 1 and 10. Serial blood samples for PK and PD were obtained prior to and at specified time points over 24 hours after dosing on Day 1 as well as prior to and at specified time points over 120 hours after dosing on Day 10. In addition, blood samples for PK were collected prior to dosing on Days 8 and 9. Urine for PK and PD measurements was collected over 24 hours starting just prior to dosing on Day 1 as well as over 120 hours starting just prior to dosing on Day 10.
These findings are consistent in the presence of Cortrosyn challenge (which occurred with the low salt treatment groups) and in the absence of the challenge (normal salt groups) (Table 13).

[1] = Renal impairment study, single 10 mg dose: pharmacokinetics; format: in vivo, human; conditions: for geometric mean ratio AUC(0-inf) versus control group / geometric mean ratio AUC(0-last) versus control group / geometric mean ratio Cmax versus control group: single 10 mg dose
Protocol: Of particular relevance to study subjects who will be enrolled in this trial is the investigation of the pharmacokinetics of (R)-compound 1 in individuals with varying degrees of renal impairment. The PK profiles of (R)-compound 1 and its primary metabolite following administration of a single 10 mg dose in individuals with renal impairment were qualitatively and quantitatively similar to those measured in healthy subjects. […] There were no noteworthy increases in systemic exposure or decrease in clearance in individuals with impaired renal function. Dose adjustment of (R)-compound 1 based on renal function was therefore not necessary.
One subject with end stage disease experienced an unrelated SAE of metabolic encephalopathy and a moderate unrelated adverse event (AE) of tremor. One control subject experienced a mild AE of diarrhea, which was considered to be related to study drug by the Investigator. […] It is not necessary to dose adjust (R)-compound 1 for patients with renal impairment.
There was no substantial impact of renal impairment on the PK of (R)-compound 1 based on pair-wise comparisons and no strong or nonlinear relationship between estimated GFR and PK parameters was observed. Findings for the primary metabolite of (R)-compound 1 was similar to those for parent with no clinically meaningful differences observed across groups. The percent of the dose excreted renally was approximately 12% in the control group and the moderate to severe renal impairment group. […] Based on the results of this study, dose adjustment of (R)-compound 1 in renally impaired individuals is not considered necessary.

[2] = Day 1, 0.5 mg, normal salt diet
[3] = Day 1, 1.5 mg, normal salt diet
[4] = Day 1, 2.5 mg, low salt diet (Cortrosyn challenge)
[5] = Day 1, 2.5 mg, normal salt diet
[6] = Day 1, 5.0 mg, low salt diet (Cortrosyn challenge)
[7] = Day 10, 0.5 mg, normal salt diet
[8] = Day 10, 1.5 mg, normal salt diet
[9] = Day 10, 2.5 mg, low salt diet (Cortrosyn challenge)
[10] = Day 10, 2.5 mg, normal salt diet
[11] = Day 10, 5.0 mg, low salt diet (Cortrosyn challenge)
[12] = moderate to severe renal impairment group

## CCC(=O)N[C@@H]1CCCc2c(-c3ccc4c(c3)CCC(=O)N4C)cncc21 [(R)-Compound 1, (R)—N-(4-(1-methyl-2-oxo-1,2,3,4-tetrahydroquinolin-6-yl)-5,6,7,8-tetrahydroisoquinolin-8-yl)propionamide]
CYP11B1; 0.5 mg, normal salt diet
  Plasma total cortisol, percent change from Day −1 to Day 10, predose, mean: −2.83%
CYP11B1; 1.5 mg, normal salt diet
  Plasma total cortisol, percent change from Day −1 to Day 10, predose, mean: 19.44%
CYP11B1; 2.5 mg, low salt diet
  Plasma total cortisol, percent change from Day −1 to Day 10, predose, mean: 5.29%
CYP11B1; 2.5 mg, normal salt diet
  Plasma total cortisol, percent change from Day −1 to Day 10, predose, mean: −0.09%
CYP11B1; 5.0 mg, low salt diet
  Plasma total cortisol, percent change from Day −1 to Day 10, predose, mean: 58.40%
CYP11B1; Day 1, 12 hours postdose, 0.5 mg, normal salt diet
  Plasma total cortisol, mean: 28.14 ng/mL
CYP11B1; Day 1, 12 hours postdose, 1.5 mg, normal salt diet
  Plasma total cortisol, mean: 25.32 ng/mL
CYP11B1; Day 1, 12 hours postdose, 2.5 mg, low salt diet
  Plasma total cortisol, mean: 21.90 ng/mL
CYP11B1; Day 1, 12 hours postdose, 2.5 mg, normal salt diet
  Plasma total cortisol, mean: 30.10 ng/mL
CYP11B1; Day 1, 12 hours postdose, 5.0 mg, low salt diet
  Plasma total cortisol, mean: 19.43 ng/mL
CYP11B1; Day 1, predose, 0.5 mg, normal salt diet
  Plasma total cortisol, mean: 84.15 ng/mL
CYP11B1; Day 1, predose, 1.5 mg, normal salt diet
  Plasma total cortisol, mean: 97.61 ng/mL
CYP11B1; Day 1, predose, 2.5 mg, low salt diet
  Plasma total cortisol, mean: 71.75 ng/mL
CYP11B1; Day 1, predose, 2.5 mg, normal salt diet
  Plasma total cortisol, mean: 106.85 ng/mL
CYP11B1; Day 1, predose, 5.0 mg, low salt diet
  Plasma total cortisol, mean: 68.24 ng/mL
CYP11B1; [2]
  Plasma 11-deoxycortisol AUC0-12 estimated percent change from baseline, LS Mean: −0.57%
  Plasma cortisol AUC0-12 estimated percent change from baseline, LS Mean: −4.43%
CYP11B1; [3]
  Plasma 11-deoxycortisol AUC0-12 estimated percent change from baseline, LS Mean: 2.39%
  Plasma cortisol AUC0-12 estimated percent change from baseline, LS Mean: 0.62%
CYP11B1; [4]
  Plasma 11-deoxycortisol AUC0-12 estimated percent change from baseline, LS Mean: 21.63%
  Plasma cortisol AUC0-12 estimated percent change from baseline, LS Mean: −3.91%
CYP11B1; [5]
  Plasma 11-deoxycortisol AUC0-12 estimated percent change from baseline, LS Mean: 12.73%
  Plasma cortisol AUC0-12 estimated percent change from baseline, LS Mean: −0.52%
CYP11B1; [6]
  Plasma 11-deoxycortisol AUC0-12 estimated percent change from baseline, LS Mean: 36.67%
  Plasma cortisol AUC0-12 estimated percent change from baseline, LS Mean: 4.04%
CYP11B1; Day 2, predose, 0.5 mg, normal salt diet
  Plasma total cortisol, mean: 88.33 ng/mL
CYP11B1; Day 2, predose, 1.5 mg, normal salt diet
  Plasma total cortisol, mean: 95.12 ng/mL
CYP11B1; Day 2, predose, 2.5 mg, normal salt diet
  Plasma total cortisol, mean: 109.23 ng/mL
CYP11B1; Day 10, 12 hours postdose, 0.5 mg, normal salt diet
  Plasma total cortisol, mean: 22.36 ng/mL
CYP11B1; Day 10, 12 hours postdose, 1.5 mg, normal salt diet
  Plasma total cortisol, mean: 41.31 ng/mL
CYP11B1; Day 10, 12 hours postdose, 2.5 mg, low salt diet
  Plasma total cortisol, mean: 22.93 ng/mL
CYP11B1; Day 10, 12 hours postdose, 2.5 mg, normal salt diet
  Plasma total cortisol, mean: 31.86 ng/mL
CYP11B1; Day 10, 12 hours postdose, 5.0 mg, low salt diet
  Plasma total cortisol, mean: 31.90 ng/mL
CYP11B1; Day 10, 24 hours postdose, 0.5 mg, normal salt diet
  Plasma total cortisol, mean: 95.76 ng/mL
CYP11B1; Day 10, 24 hours postdose, 1.5 mg, normal salt diet
  Plasma total cortisol, mean: 90.27 ng/mL
CYP11B1; Day 10, 24 hours postdose, 2.5 mg, low salt diet
  Plasma total cortisol, mean: 94.36 ng/mL
CYP11B1; Day 10, 24 hours postdose, 2.5 mg, normal salt diet
  Plasma total cortisol, mean: 126.20 ng/mL
CYP11B1; Day 10, 24 hours postdose, 5.0 mg, low salt diet
  Plasma total cortisol, mean: 121.40 ng/mL
CYP11B1; Day 10, predose, 0.5 mg, normal salt diet
  Plasma total cortisol, mean: 81.90 ng/mL
CYP11B1; Day 10, predose, 1.5 mg, normal salt diet
  Plasma total cortisol, mean: 96.54 ng/mL
CYP11B1; Day 10, predose, 2.5 mg, low salt diet
  Plasma total cortisol, mean: 91.85 ng/mL
CYP11B1; Day 10, predose, 2.5 mg, normal salt diet
  Plasma total cortisol, mean: 106.52 ng/mL
CYP11B1; Day 10, predose, 5.0 mg, low salt diet
  Plasma total cortisol, mean: 112.67 ng/mL
CYP11B1; [7]
  Plasma 11-deoxycortisol AUC0-12 estimated percent change from baseline, LS Mean: −6.77%
  Plasma cortisol AUC0-12 estimated percent change from baseline, LS Mean: −19.53%
CYP11B1; [8]
  Plasma 11-deoxycortisol AUC0-12 estimated percent change from baseline, LS Mean: 1.82%
  Plasma cortisol AUC0-12 estimated percent change from baseline, LS Mean: −4.45%
CYP11B1; [9]
  Plasma 11-deoxycortisol AUC0-12 estimated percent change from baseline, LS Mean: −25.69%
  Plasma cortisol AUC0-12 estimated percent change from baseline, LS Mean: −38.02%
CYP11B1; [10]
  Plasma 11-deoxycortisol AUC0-12 estimated percent change from baseline, LS Mean: −2.72%
  Plasma cortisol AUC0-12 estimated percent change from baseline, LS Mean: −9.23%
CYP11B1; [11]
  Plasma 11-deoxycortisol AUC0-12 estimated percent change from baseline, LS Mean: 18.84%
  Plasma cortisol AUC0-12 estimated percent change from baseline, LS Mean: −37.25%
CYP11B1; Day −1 predose, 0.5 mg, normal salt diet
  Plasma total cortisol, mean: 86.74 ng/mL
CYP11B1; Day −1 predose, 1.5 mg, normal salt diet
  Plasma total cortisol, mean: 90.79 ng/mL
CYP11B1; Day −1 predose, 2.5 mg, low salt diet
  Plasma total cortisol, mean: 90.39 ng/mL
CYP11B1; Day −1 predose, 2.5 mg, normal salt diet
  Plasma total cortisol, mean: 107.50 ng/mL
CYP11B1; Day −1 predose, 5.0 mg, low salt diet
  Plasma total cortisol, mean: 83.17 ng/mL
CYP11B1
  cortisol (total or free) or 11-deoxycortisol: remained unaffected
CYP11B1; listed as (R)-compound 1
  cortisol (total or free) or 11-deoxycortisol: no apparent effects; also recorded: no apparent differences
[1]; control group
  percent of the dose excreted renally: approximately 12%
[1]; kidney failure group
  renal excretion: negligible renal excretion
  geometric mean ratio AUC(0-inf) versus control group: 0.68
  geometric mean ratio AUC(0-last) versus control group: 0.68
  geometric mean ratio Cmax versus control group: 0.88
[1]; [12]
  percent of the dose excreted renally: approximately 12%
  geometric mean ratio AUC(0-inf) versus control group: 1.21
  geometric mean ratio AUC(0-last) versus control group: 1.17
  geometric mean ratio Cmax versus control group: 1.02
